What all share (format): biochemical
The target of one assay is T1, Dyrk1a (Homo sapiens, UniProt Q13627).
T1 construct: purchased Upstate
Kind of assay: LabChip (Caliper) kinase assay, Dyrk1a. The note with it: for inhibition at 0.01 µM: compound at 10 nM; for inhibition at 0.01 µM / inhibition at 0.1 µM: read-out: remaining kinase activity (in %) / percentage of inhibition; for inhibition at 0.1 µM: compound at 100 nM; for IC50: ATP at Km, read-out: CI50 (the source's name). The procedure: (§1) The analysis of kinase activity described here was performed using LabChip (Caliper Life Sciences), specifically the Caliper LC3000 and the EZ Reader II instruments.
(§2) The kinase assay used measures the conversion of a fluorescent peptide (substrate) to a phosphorylated product. The reaction mixture, in a microplate well, is introduced by a capillary in a chip where the non-phosphorylated substrate and the phosphorylated product are separated by […]. The intensity of the fluorescent signal over time is related to the reaction progress. The phosphorylated product migrates quicker than the non-phosphorylated substrate and the signals of the two forms of the peptide appear as differentiated peaks. The Caliper determines the peak height and calculates the ratio of product to the peak sum (P/(P+S)). This value is used to compare wells with compounds and wells with controls and thus determine the % of inhibition for the given product.
(§3) The followings kinases were used for the enzymatic inhibition studies, between brackets the value of the Michaelis-Menten constant, Km, of the ATP (Adenosine triphosphate) for each kinase, in μM: obtained from Carna Biosciences: MAPKAPK2 (4.6), AurA (3.6), AurB (5), PKCζ (3.8), RSK1 (23.3), PRAK (5), Erk1 (33.4), PKD2 (32.1), CK1d (16.3), CHK1 (33), ABL (61.7), FYN (36), LYNa (17), CHK2 (57.8), MET (79.5), LCK (28.5), SRC (38), GSK3β (7.3), Erk2 (62.1), PKACα (1.7), AKT2 (186.1), INSR (871.8), p38a (396.5), AKT1(48), MSK1 (21.2), PKCβ2 (84.8), ROCK2 (3.3), PIM2 (4.9), AMPK (38.6), KDR (164.8), IRAK4 (196.5), SGK1 (121.8), SYK (33.5); obtained from Invitrogen: CDK2 (57.6), BTK (123), HGK (80); obtained from Upstate: MST2 (36.6), PKGα (16), PAK2 (1.9), IGF1R (320), FGFR1 (171), MARK1 (33), CAMK2δ (22.4), c-TAK1 (66), DYRK1a (18.1), CaMK4 (3.9), FLT3 (350), c-Raf (6.2), P70S6K (95).
(§4) The compounds were dissolved in 100% DMSO and were diluted at 25 times the final concentration desired for the assay. In the case of the determination of Cl50, serial dilutions were made to reach eight concentrations and give rise to the inhibition curve. 1 μL of each concentration is transferred, in duplicate to a 384-well microplate. 12 μL of enzymatic buffer is added to each well containing purified kinase (several suppliers as indicated above), 100 mM HEPES, pH 7.5, 1 mM DTT (Calbiochem), 0.002% Brij-35 (Sigma) and also in presence of 10 mM MgCl2 as cofactor, except for INSR and IRAK4 wherein 10 mM MnCl2 is used instead of MgCl2. For the kinases CAMK26 and CAMK4, 1 mM CaCl2 and 6.7 μg/mL of calmodulin are also added. For KDR kinase, 0.05% of the CHAPSO detergent is added. For the c-Raf kinase, 10 mM MnCl2 is added. For PKCβ2 0.02 μg/mL of PS/PMA is added. For PKGα se 10 μM of cGMP (cyclic guanosine monophosphate) is added. The compound and the enzyme are left for 15 minutes preincubation and, then, the following are added to each well: 12 μL of peptide buffer/ATP containing 100 mM HEPES, pH 7.5, 1.5 μM peptide marker with fluorescein (specific for the corresponding kinase), ATP (at concentration KM), and 0.002% Brij-35 to start the reaction. Generally, the reactions are incubated for 1-1.5 h at ambient temperature to obtain an adequate conversion (15-40%) of the peptide to the phosphorylated product. The reactions were ended by the addition of 45 μL of buffer containing 0 mM EDTA. The microplates were read by the LabChip 3000 using a 12-channel LabChip. The P/(P+S) values were obtained as described above and the CI50 curves were generated using XIfit.
Table 9a has the 0150 data obtained in pairs of compound-kinase selected from the compounds of formula (VII), (VIII), (IX), (XVI), (XVII) and (XVIII) after taking inhibition measurements at 100 nM and 10 nM. Those couples that provide >70% of inhibition at 10 nM were consider for measuring its IC50. […]

For a further assay, the target named is FGFR3 (Homo sapiens, UniProt P22607). Kind of assay: LabChip (Caliper) kinase assay, FGFR3. As to conditions: read-out: remaining kinase activity (in %) / percentage of inhibition; for inhibition at 0.01 µM: compound at 10 nM; for inhibition at 0.1 µM: compound at 100 nM. As to the method: as §1, §2, §3, §4
Sequence of FGFR3 (P22607 23-806, species assumed): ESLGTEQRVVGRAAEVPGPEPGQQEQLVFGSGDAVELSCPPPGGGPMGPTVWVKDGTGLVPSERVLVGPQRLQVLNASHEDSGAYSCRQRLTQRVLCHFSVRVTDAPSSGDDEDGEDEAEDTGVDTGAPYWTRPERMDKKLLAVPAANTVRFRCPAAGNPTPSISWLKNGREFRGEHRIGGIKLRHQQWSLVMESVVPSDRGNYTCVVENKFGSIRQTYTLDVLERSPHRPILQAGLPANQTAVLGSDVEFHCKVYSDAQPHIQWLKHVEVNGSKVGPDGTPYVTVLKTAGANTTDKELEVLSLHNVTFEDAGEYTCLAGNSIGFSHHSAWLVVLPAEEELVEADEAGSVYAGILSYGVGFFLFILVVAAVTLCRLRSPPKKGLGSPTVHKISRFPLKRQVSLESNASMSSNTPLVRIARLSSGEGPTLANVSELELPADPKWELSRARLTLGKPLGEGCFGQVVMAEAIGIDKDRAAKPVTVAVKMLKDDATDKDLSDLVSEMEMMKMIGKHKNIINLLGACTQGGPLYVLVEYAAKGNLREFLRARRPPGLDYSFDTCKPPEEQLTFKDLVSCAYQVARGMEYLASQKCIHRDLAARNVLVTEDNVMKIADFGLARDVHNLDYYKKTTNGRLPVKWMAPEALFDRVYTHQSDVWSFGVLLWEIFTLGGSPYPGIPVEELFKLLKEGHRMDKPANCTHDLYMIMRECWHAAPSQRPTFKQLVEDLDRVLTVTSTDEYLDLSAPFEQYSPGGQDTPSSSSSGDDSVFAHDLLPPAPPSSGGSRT
For example, the activity of the Dyrk1a kinase is inhibited in 87% by the compound of formula (III) and completely by the compound of formula (XII) when used at a concentration of 10 nM.

The next assay has as its target T2, p38a (Homo sapiens, UniProt Q16539).
T2 construct: purchased Carna Biosciences
Kind of assay: LabChip (Caliper) kinase assay, p38a. As to conditions: read-out: remaining kinase activity (in %) / percentage of inhibition; for inhibition at 0.01 µM: compound at 10 nM; for inhibition at 0.1 µM: compound at 100 nM. As to the method: as §1, §2, §3
as §4, with “XIfit. […]” for “XIfit.”

T2 sequence (Q16539 whole entry): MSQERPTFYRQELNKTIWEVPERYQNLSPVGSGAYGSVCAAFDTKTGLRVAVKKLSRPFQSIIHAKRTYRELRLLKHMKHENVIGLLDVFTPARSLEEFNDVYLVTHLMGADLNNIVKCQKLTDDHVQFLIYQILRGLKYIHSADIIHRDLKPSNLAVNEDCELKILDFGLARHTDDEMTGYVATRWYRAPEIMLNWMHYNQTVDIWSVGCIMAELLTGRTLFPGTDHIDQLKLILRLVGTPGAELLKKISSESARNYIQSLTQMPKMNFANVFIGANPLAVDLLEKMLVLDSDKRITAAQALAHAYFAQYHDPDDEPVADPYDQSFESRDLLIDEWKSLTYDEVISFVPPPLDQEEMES

For the compound `C[C@@H]1O[C@@H](n2c3ccccc3c3c4c(c5c6ccccc6[nH]c5c32)C(=O)NC4=O)[C@H](O)[C@H](O)[C@H]1O` [formula (III), N^13-1′-β-L-rhamnosylarcyriaflavin], the inhibition at 0.01 µM was 87% at Dyrk1a, -10% on FGFR3 and 0% at p38a. Also, the inhibition at 0.1 µM at Dyrk1a is 103%; at FGFR3 it was -4%; on p38a it was -1%.

Take `C[C@@H]1O[C@@H](n2c3ccccc3c3c4c(c5c6ccccc6[nH]c5c32)C(=O)NC4=O)C[C@H](O)[C@H]1O` [formula (IV), N^13-1′-β-L-olivosylarcyriaflavin]: the results for the inhibition at 0.01 µM on Dyrk1a, at FGFR3 and on p38a were 32%, -6% and -2%, respectively. Besides, the inhibition at 0.1 µM on Dyrk1a was 75%; on FGFR3 it was 3%; at p38a, -2%.

Consider `C[C@]12O[C@H](C[C@@H](O)[C@H]1O)n1c3ccccc3c3c4c(c5c6ccccc6n2c5c31)C(=O)NC4=O` [formula (IX), N^12-5′(S)-N^13-1′-(R)-L-digitoxosylarcyriaflavin], for which the IC50 on Dyrk1a was > 10 nM.

Take `C[C@@H]1O[C@@H](n2c3ccccc3c3c4c(c5c6ccccc6[nH]c5c32)C(=O)NC4=O)C[C@@H](O)[C@H]1O` [formula (V), N^13-1′-β-L-digitoxosylarcyriaflavin]: the inhibition at 0.01 µM on Dyrk1a is 49%; on FGFR3, -6%; on p38a, 1%. For the same compound, the results for the inhibition at 0.1 µM on Dyrk1a, at FGFR3 and on p38a were 87%, -1% and -2%, respectively.

Regarding `C[C@H]1O[C@@H](n2c3ccccc3c3c4c(c5c6ccccc6[nH]c5c32)C(=O)NC4=O)C[C@@H](O)[C@@H]1O` [formula (VI), N^13-1′-β-D-olivosylarcyriaflavin], the inhibition at 0.01 µM at Dyrk1a is 62%; on FGFR3, -8%; on p38a, -1%. In addition, the inhibition at 0.1 µM on Dyrk1a was 94%; at FGFR3 it was -11%; on p38a, -1%.

`C[C@]12O[C@H]([C@H](O)[C@H](O)[C@H]1O)n1c3ccccc3c3c4c(c5c6ccccc6n2c5c31)C(=O)NC4=O` [formula (VII), N^12-5′(S)-N^13-1′-(R)-L-rhamnosylarcyriaflavin]: the IC50 at Dyrk1a was 4 nM.

Take `C[C@@H]1O[C@@H](n2c3ccccc3c3c4c(c5c6ccccc6[nH]c5c32)CNC4=O)[C@H](O)[C@H](O)[C@H]1O` [formula (XII), N^13-1′-β-L-rhamnosyl-k252c]: the inhibition at 0.01 µM was 101% at Dyrk1a, -2% at FGFR3 and -1% at p38a. The inhibition at 0.1 µM on Dyrk1a is 115%; at FGFR3 it was -1%; at p38a, 0%.

With `C[C@@H]1O[C@@H](n2c3ccccc3c3c4c(c5c6ccccc6[nH]c5c32)CNC4=O)C[C@H](O)[C@H]1O` [formula (XIII), N^13-1′-β-L-olivosyl-k252c], the inhibition at 0.01 µM at Dyrk1a was 42%; on FGFR3 it was -4%; at p38a, -2%. Besides, the inhibition at 0.1 µM on Dyrk1a was 89%; on FGFR3, -6%; on p38a it was -3%.

For `C[C@@H]1O[C@@H](n2c3ccccc3c3c4c(c5c6ccccc6[nH]c5c32)CNC4=O)C[C@@H](O)[C@H]1O` [formula (XIV), N^13-1′-β-L-digitoxosyl-k252c], the inhibition at 0.01 µM at Dyrk1a is 15%; at FGFR3, -6%; at p38a, -1%. The figures for the inhibition at 0.1 µM at Dyrk1a, on FGFR3 and on p38a were 73%, -11% and -2%, respectively.

Consider `C[C@H]1O[C@@H](n2c3ccccc3c3c4c(c5c6ccccc6[nH]c5c32)CNC4=O)C[C@@H](O)[C@@H]1O` [formula (XV), N^13-1′-β-D-olivosyl-k252c], for which the figures for the inhibition at 0.01 µM at Dyrk1a, on FGFR3 and at p38a were 14%, -20% and -1%, respectively. Also, the results for the inhibition at 0.1 µM on Dyrk1a, at FGFR3 and at p38a were 50%, -13% and -3%, respectively.

For the compound `C[C@]12O[C@H](C[C@@H](O)[C@H]1O)n1c3ccccc3c3c4c(c5c6ccccc6n2c5c31)CNC4=O` [formula (XVIII), N^12-5′(S)-N^13-1′-(R)-L-digitoxosyl-k252c], on Dyrk1a, the IC50 was > 100 nM.

The values above are taken from patent publication US8598132B2, “Glycosylated indolocarbazoles, method for obtaining same and uses thereof” (Universidad de Oviedo, priority 2008, dated 2013).
